# Laboratory results published in patent US20260053777A1, “USE OF NRF2 ACTIVATORS FOR THE TREATMENT OF CEREBRAL SMALL VESSEL DISEASE” (INSTITUT NATIONAL DE LA SANTÉ ET DE LA RECHERCHE MÉDICALE, priority 2022, published 2026).
# Columns and labels:
# [1] = tested on: Human brain microvascular endothelial cells (HBMEC); assay: Cellrox Green detection of oxidative stress in HBMEC treated with control or TRIM47 siRNA and Luperox; type: cell-based; conditions: Luperox, pre-treatment with tBHQ
# Method: Human brain microvascular endothelial cells (HBMEC) were treated with control or TRIM47 siRNA and with/without Luperox (inducer of oxidative stress) and incubated with Cellrox Green dye (detection of oxidative stress).
# [2] = tested on: Nrf2 and its target genes; assay: qPCR screening of Nrf2 and its target genes on brain endothelial cells isolated from adult mice with/without tBHQ diet; type: in vivo
# Trim47 −/− adult mice = assay: Water maze behavioural test on adult mice with/without a diet with tBHQ; type: in vivo
# Method: FIG. 4. TRIM47 is essential to brain physiology by promoting the NRF2 antioxidant protective system. […] B. RNA-sequencing was performed on HBMEC treated with control or TRIM47 siRNA. C. Assessment of blood brain barrier (BBB) permeability was done on Trim47 +/+ and Trim47 −/− adult mice. Mann-Whitney test. D. Representative image by immunofluorescence of GFAP expression (activated astrocytes) in brain sections from Trim47 +/+ and Trim47 −/− adult mice. E. Water maze behavioural test performed on adult mice with/without a diet with tBHQ. Two-way ANOVA with repeated measures. […] Latency to reach platform is shown for the 4 training days (FIG. 4E).
# NRF2 = assay: Rescue of the effect of TRIM47 knockdown by activation of NRF2 at the protein level (FIG. 3); type: cell-based, human; conditions: tBHQ stabilizing NRF2 protein
# Excerpt: FIG. 3. […] Methods. TRIM47 interacting effectors were searched by proximity labeling assay (BioID) in human brain EC. TRIM47 knockdown in EC allowed to explore TRIM47 role in functional assays, and to identify transcriptional response by RNA-sequencing.
# [3] = Trim47 KO mice, brain EC, +tBHQ diet (1% W/W, 1 month), mean of n = 5
# [4] = Trim47 WT mice, brain EC, +tBHQ diet (1% W/W, 1 month), mean of n = 5
structure (smiles),measurement,setting,value
"CC(C)(C)c1cc(O)ccc1O [tBHQ, tert-butylhydroquinone]",Induction of oxidative stress (Cellrox Green dye),[1],reversed induction of oxidative stress
same,Relative gene expression fold change (normalized to Pecam1): Cdh5 (BBB integrity),[2]; [3],0.967
same,Relative gene expression fold change (normalized to Pecam1): Cldn5 (BBB integrity),[2]; [3],0.877
same,Relative gene expression fold change (normalized to Pecam1): Cldn11 (BBB integrity),[2]; [3],1.020
same,Relative gene expression fold change (normalized to Pecam1): Gclm (Nrf2 pathway),[2]; [3],1.009
same,Relative gene expression fold change (normalized to Pecam1): Hmox1 (Nrf2 pathway),[2]; [3],1.095
same,Relative gene expression fold change (normalized to Pecam1): Keap1 (Nrf2 pathway),[2]; [3],0.730
same,Relative gene expression fold change (normalized to Pecam1): Me1 (Nrf2 pathway),[2]; [3],1.148
same,Relative gene expression fold change (normalized to Pecam1): Nfe2l2 (Nrf2 pathway),[2]; [3],1.040
same,Relative gene expression fold change (normalized to Pecam1): Nqo1 (Nrf2 pathway),[2]; [3],1.084
same,Relative gene expression fold change (normalized to Pecam1): Ocln (BBB integrity),[2]; [3],0.895
same,Relative gene expression fold change (normalized to Pecam1): Slc7a11 (Nrf2 pathway),[2]; [3],1.145
same,Relative gene expression fold change (normalized to Pecam1): Cdh5 (BBB integrity),[2]; [4],1.013
same,Relative gene expression fold change (normalized to Pecam1): Cldn5 (BBB integrity),[2]; [4],1.071
same,Relative gene expression fold change (normalized to Pecam1): Cldn11 (BBB integrity),[2]; [4],1.016
same,Relative gene expression fold change (normalized to Pecam1): Gclm (Nrf2 pathway),[2]; [4],0.999
same,Relative gene expression fold change (normalized to Pecam1): Hmox1 (Nrf2 pathway),[2]; [4],1.033
same,Relative gene expression fold change (normalized to Pecam1): Keap1 (Nrf2 pathway),[2]; [4],1.014
same,Relative gene expression fold change (normalized to Pecam1): Me1 (Nrf2 pathway),[2]; [4],1.033
same,Relative gene expression fold change (normalized to Pecam1): Nfe2l2 (Nrf2 pathway),[2]; [4],1.007
same,Relative gene expression fold change (normalized to Pecam1): Nqo1 (Nrf2 pathway),[2]; [4],1.033
same,Relative gene expression fold change (normalized to Pecam1): Ocln (BBB integrity),[2]; [4],1.025
same,Relative gene expression fold change (normalized to Pecam1): Slc7a11 (Nrf2 pathway),[2]; [4],1.030
same,Relative gene expression fold change (normalized to Pecam1): Trim47,[2]; [4],1.066
same,"Impairment of the Nrf2 pathway in Trim47 −/− mice (qPCR, brain endothelial cells)","[2]; Trim47 −/− adult mice, 1-month diet with tBHQ (1% W/W)",prevented
same,"Cognitive impairment in water maze (latency to reach platform, 4 training days)",Trim47 −/− adult mice,prevent cognitive impairment
same,Effect of TRIM47 knockdown (FIG. 3),NRF2,partly rescues the effect of TRIM47 knockdown
